# Measurements published in patent US5696117A, “Benzoxazine antimicrobial agents” (Ortho Pharmaceutical Corporation, priority 1995, dated 1997).
# Molecular target: T1, Kinase A and SpoOF (Bacillus subtilis, UniProt P16497)
# T1 construct: made in house; host or cells: recombinant E. coli (overexpression)
# T1 sequence (P16497 1-606): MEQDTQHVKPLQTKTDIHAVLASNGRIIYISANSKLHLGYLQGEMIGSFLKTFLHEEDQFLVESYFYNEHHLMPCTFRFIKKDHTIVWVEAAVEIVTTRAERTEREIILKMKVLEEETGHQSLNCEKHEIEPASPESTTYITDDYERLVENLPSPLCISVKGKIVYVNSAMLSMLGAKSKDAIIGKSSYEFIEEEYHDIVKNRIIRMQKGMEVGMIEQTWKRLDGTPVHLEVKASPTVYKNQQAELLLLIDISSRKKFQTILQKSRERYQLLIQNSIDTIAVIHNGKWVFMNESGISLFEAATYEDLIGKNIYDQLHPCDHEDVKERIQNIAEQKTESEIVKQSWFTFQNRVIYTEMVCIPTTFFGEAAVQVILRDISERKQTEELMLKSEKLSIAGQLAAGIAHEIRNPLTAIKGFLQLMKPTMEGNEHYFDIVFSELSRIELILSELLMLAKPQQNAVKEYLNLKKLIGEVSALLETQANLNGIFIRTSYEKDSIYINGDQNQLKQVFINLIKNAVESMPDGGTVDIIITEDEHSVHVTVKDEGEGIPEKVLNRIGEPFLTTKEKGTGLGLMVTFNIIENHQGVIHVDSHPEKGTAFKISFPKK
# Experiment: Autophosphorylation of Kinase A and Transphosphorylation of SpoOF Assay (HPK in vitro assay)
# Assay type: biochemical
# Details: inhibition of KinA autophosphorylation / SpoOF transphosphorylation, inhibitor concentrations from 1 to 500 μM
# Protocol: 1. Autophosphorylation of Kinase A and Transphosphorylation of SpoOF Assay
# To study the effect of the compounds of the present invention on the signal transduction process in bacteria, the inhibiting effect of the compounds on the sporulation operon proteins Kinase A and SpoOF was examined. Specifically, the inhibition of autophosphorylation of Kinase A and the transphosphorylation of SpoOF was determined in the following assays. The SpoOF response regulator is the primary substrate for phosphorylation by the protein kinase, Kin A, involved in the sporulation process in bacteria. See D. Burbulys, K. A. Trach, J. A. Hoch, Cell, 64, 545-552 (1991). SpoOF and KinA were prepared from recombinant E. coli overexpressing the proteins (J. Cavanagh et al, Amino Acids, 6, 131-140 (1994) and references therein).
# The following stock reagents were either prepared and used promptly or stored at the indicated temperature:
# 8× Salts: 2M KCl (5 mL), 1M MgCl2 (800 mL), 1M CaCl2 (100 mL), 10 mg/mL phenylmethylsulfonyl fluoride (200 mL), 1M dithioreitol (50 mL), 0.25M Na2 EDTA (32 mL) and H2 O 3.82 mL (-20° C.)
# 5× Loading Dye: 0.5M TRIS-HCl-pH 6.8 (7.5 mL), 10% SDS (2 mL) 0.1% bromophenol blue (0.5 mL), 100% glycerol (3 mL) and 12.5M 2-mercaptoethanol (0.3 mL)
# 1-1.3 mg/mL KinA:15 mM TRIS-HCl, pH 8.0, 6 mM KCl; 4 mM 2-mercaptoethanol; 40% glycerol (-20° C.)
# 1 mg/mL SpoOF: 17.5 mM TRIS-HCl, pH 8.0; 0.7 mM KCl; 0.7 mM MgCl2; 0.7 mM CaCl2; 5mM 2-mercaptoethanol; 30% Glycerol (-20° C.)
# 5% Stacking Gel: 40% 29:1 acrylamide:bis acrylamide (1.25 mL), 0.5M TRIS-HCl, pH 6.8 (2.5 mL), 10% SDS (0.1 mL), D-H2 O (6.15 mL) 10% ammonium persulfate (100 mL) and TEMED (25 mL)
# SDS Running Buffer: TRIS-BASE (3.02 g), glycine (14.4 g) SDS (1 g), D-H2 O (to 1 L)
# The reaction mixture was prepared from 8× Salts (87 μL), 1M TRIS, pH 8 (118 μL), 50% glycerol (63 μL), SpoOF (14.1 μL) and KinA (7.0 μL). Microcentrifuge tubes were charged with the reaction mixture (18.5 μL) and a 1.0 mM solution of the test compound in 5% DMSO (18.5 μL), and incubated for 15 min on ice. 100 mM ATP solution (3.0 μl, containing 625 μCi [^32 P]ATP) was added, and the mixture left for 10 minutes at room temperature. The reaction was quenched with 5× loading dye (10 μL per tube) and the samples were loaded on a prepared 5% Stacking Gel, or stored on dry ice until ready for use. The prepared wells were filled with SDS Running Buffer, samples were loaded into the wells, and 80 volts were applied to the gel until the dye front reached the bottom of the stacking gel. The voltage was then increased to 250 volts until electrophoresis was complete. Radioactive bands in the gel corresponding to phosphorylated KinA and SpoOF were imaged and quantitated with a phosphoimager.
# If either enzyme was inhibited (as evidenced by the absence of labelled protein in the developed gel), an IC50 was calculated by running the assay with a range of inhibitor concentrations from 1 to 500 μM. After electrophoresis of the reaction mixtures, percent inhibition was determined by measuring the concentration of radioactive phosphorus with a phosphoimager and calculating the values using a software program (BioRad Molecular Analyst). IC50 values of less than 500 μM are considered active.
row,SMILES,IC50
1,"N=C(N)NCCc1ccc(OCCC2Oc3cc([N+](=O)[O-])ccc3N(Cc3cccc([N+](=O)[O-])c3)C2=O)cc1 (stereo not shown) [Compound 91, 3,4-Dihydro-2-{2-[4-(2-guanidinoethyl)phenoxy]ethyl}-7-nitro-4-(3-nitrobenzyl)-3-oxo-2H-1,4-benzoxazine]",33 µM
2,"N=C(N)NCCc1ccc(OCCC2Oc3cc([N+](=O)[O-])ccc3N(Cc3ccc([N+](=O)[O-])cc3)C2=O)cc1 (stereo not shown) [Compound 97, 3,4-Dihydro-2-{2-[4-(2-guanidinoethyl)phenoxy]ethyl}-7-nitro-4-(4-nitrobenzyl)-3-oxo-2H-1,4-benzoxazine]",53 µM
3,"COc1ccc2c(c1)OC(CCOc1ccc(CCNC(=NC(=O)OC(C)(C)C)NC(=O)OC(C)(C)C)cc1)C(=O)N2Cc1cccc([N+](=O)[O-])c1 (stereo not shown) [Compound 99, 2-{2-[4-(2-(N,N'-Bis-tert-butoxycarbonylguanidino)ethyl)phenoxy]ethyl}-3,4-dihydro-7-methoxy-4-(3-nitrobenzyl)-3-oxo-2H-1,4-benzoxazine]",343 µM
4,"COC(=O)c1ccc(CN2C(=O)C(CCOc3ccc(CCN)cc3)Oc3ccccc32)cc1 (stereo not shown) [Compound 104, 2-{2-[4-(2-Aminoethyl)phenoxy]ethyl}-4-(4-carbomethoxybenzyl)-3,4-dihydro-3-oxo-2H-1,4-benzoxazine]",24 µM
5,"NCCc1ccc(OCCC2Oc3ccccc3N(Cc3ccc(C(=O)O)cc3)C2=O)cc1 (stereo not shown) [Compound 110, 4-{3,4-Dihydro-2-[2-(4-(2-aminoethyl)phenoxy)]ethyl-3-oxo-2H-1,4-benzoxazin-4-yl}methylbenzoic Acid]",324 µM
6,"CC(C)(C)OC(=O)NCCc1ccc(OCCC2Oc3ccccc3N(Cc3cccc(C(=O)O)c3)C2=O)cc1 (stereo not shown) [Compound 111, 3-{3,4-Dihydro-2-[2-(4-(2-(-t-butoxycarbonylamino)ethyl)phenoxy)]ethyl-3-oxo-2H-1,4-benzoxazin-4-yl}methylbenzoic Acid]",113 µM
7,"O=C(O)CCc1cccc(OCCC2Oc3ccccc3N(Cc3cccc(Cl)c3)C2=O)c1 (stereo not shown) [Compound 127, 3-[3-[2-{4-(3-Chlorobenzyl)-3,4-dihydro-3-oxo-2H-1,4-benzoxazin-2-yl}ethoxy]phenyl]propionic Acid]",251 µM

# Next, values leading:
row,IC50,SMILES
1,30 µM,"Cl.N=C(N)NCCc1ccc(OCCC2Oc3cc([N+](=O)[O-])ccc3N(Cc3cccc(Cl)c3)C2=O)cc1 (stereo not shown) [Compound 84, 3,4-Dihydro-4-(3-chlorobenzyl)-2-{2-[4-(2-guanidinoethyl)phenoxy]ethyl}-7-nitro-3-oxo-2H-1,4-benzoxazine Monohydrochloride]"
2,11 µM,"Cl.N=C(N)NCCc1ccc(OCCC2Oc3cc([N+](=O)[O-])ccc3N(Cc3ccccc3Cl)C2=O)cc1 (stereo not shown) [Compound 87, 4-(2-Chlorobenzyl)-3,4-dihydro-2-{2-[4-(2-guanidinoethyl)phenoxy]ethyl}-7-nitro-3-oxo-2H-1,4-benzoxazine Monohydrochloride]"
3,32 µM,"N=C(N)NCCc1ccc(OCCC2Oc3ccccc3N(Cc3cccc([N+](=O)[O-])c3)C2=O)cc1 (stereo not shown) [Compound 95, 3,4-Dihydro-2-{2-[4-(2-guanidinoethyl)phenoxy]ethyl}-4-(3-nitrobenzyl)-3-oxo-2H-1,4-benzoxazine]"
4,32 µM,"COc1ccc2c(c1)OC(CCOc1ccc(CCNC(=N)N)cc1)C(=O)N2Cc1cccc([N+](=O)[O-])c1 (stereo not shown) [Compound 100, 3,4-Dihydro-2-{2-[4-(2-guanidinoethyl)phenoxy]ethyl}-7-methoxy-4-(3-nitrobenzyl)-3-oxo-2H-1,4-benzoxazine]"
5,166 µM,"COC(=O)c1cccc(CN2C(=O)C(CCOc3ccc(CCN)cc3)Oc3ccccc32)c1 (stereo not shown) [Compound 106, 2-{2-[4-(2-Aminoethyl)phenoxy]ethyl}-4-(3-carbomethoxybenzyl)-3,4-dihydro-3-oxo-2H-1,4-benzoxazine]"
6,254 µM,"NCCc1ccc(OCCC2Oc3ccccc3N(Cc3cccc(C(=O)O)c3)C2=O)cc1 (stereo not shown) [Compound 112, 3-{3,4-Dihydro-2-[2-(4-(2-aminoethyl)phenoxy)]ethyl-3-oxo-2H-1,4-benzoxazin-4-yl}methylbenzoic Acid]"
